# Laboratory results reported in PMC11345841, “Exploring 2-Sulfonylpyrimidine Warheads as Acrylamide Surrogates for Targeted Covalent Inhibition: A BTK Story” (Journal of Medicinal Chemistry, 2024).
# Like-named read-outs stand apart in the source and are kept apart here.
# Tests used:
# Assay in all cases: KINOMEscan ScanTK
# Assay type in all cases: binding
# EPHA1 = biological target: T1, EPHA1 (Homo sapiens, UniProt P21709)
# T1 construct: purchased Eurofins DiscoverX KINOMEscan (scanTK)
# T1 sequence (P21709 26-976): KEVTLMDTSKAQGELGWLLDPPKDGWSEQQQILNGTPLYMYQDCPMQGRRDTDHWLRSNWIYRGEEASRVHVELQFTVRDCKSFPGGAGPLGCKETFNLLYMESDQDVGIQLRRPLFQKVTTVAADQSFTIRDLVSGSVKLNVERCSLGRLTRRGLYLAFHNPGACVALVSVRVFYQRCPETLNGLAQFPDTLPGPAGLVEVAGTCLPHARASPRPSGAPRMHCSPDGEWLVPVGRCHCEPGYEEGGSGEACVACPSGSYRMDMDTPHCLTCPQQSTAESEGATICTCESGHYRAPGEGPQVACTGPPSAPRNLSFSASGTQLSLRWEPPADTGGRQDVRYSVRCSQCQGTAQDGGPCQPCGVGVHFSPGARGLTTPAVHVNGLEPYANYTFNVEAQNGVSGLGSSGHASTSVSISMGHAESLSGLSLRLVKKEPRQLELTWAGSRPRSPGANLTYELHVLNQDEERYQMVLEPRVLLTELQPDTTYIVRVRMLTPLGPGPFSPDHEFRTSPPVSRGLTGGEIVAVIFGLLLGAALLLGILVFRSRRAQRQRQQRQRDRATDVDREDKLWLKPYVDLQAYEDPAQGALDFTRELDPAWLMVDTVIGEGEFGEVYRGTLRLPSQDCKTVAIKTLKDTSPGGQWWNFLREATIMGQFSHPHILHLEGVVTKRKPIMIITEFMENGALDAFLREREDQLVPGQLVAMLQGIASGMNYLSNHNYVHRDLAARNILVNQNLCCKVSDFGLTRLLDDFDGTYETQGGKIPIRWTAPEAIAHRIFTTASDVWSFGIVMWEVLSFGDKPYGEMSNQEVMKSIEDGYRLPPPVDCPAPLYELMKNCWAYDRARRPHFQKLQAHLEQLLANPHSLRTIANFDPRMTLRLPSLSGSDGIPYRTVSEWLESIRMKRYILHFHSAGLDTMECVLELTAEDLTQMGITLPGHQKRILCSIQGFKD
# [1] = biological target: T2, ABL1(F317I)-phosphorylated (Homo sapiens, UniProt P00519, F317I)
# T2 construct: purchased Eurofins DiscoverX KINOMEscan (scanTK)
# PDGFRB = biological target: T3, PDGFRB (Homo sapiens, UniProt P09619)
# T3 construct: purchased Eurofins DiscoverX KINOMEscan (scanTK)
# T3 sequence (P09619 33-1106): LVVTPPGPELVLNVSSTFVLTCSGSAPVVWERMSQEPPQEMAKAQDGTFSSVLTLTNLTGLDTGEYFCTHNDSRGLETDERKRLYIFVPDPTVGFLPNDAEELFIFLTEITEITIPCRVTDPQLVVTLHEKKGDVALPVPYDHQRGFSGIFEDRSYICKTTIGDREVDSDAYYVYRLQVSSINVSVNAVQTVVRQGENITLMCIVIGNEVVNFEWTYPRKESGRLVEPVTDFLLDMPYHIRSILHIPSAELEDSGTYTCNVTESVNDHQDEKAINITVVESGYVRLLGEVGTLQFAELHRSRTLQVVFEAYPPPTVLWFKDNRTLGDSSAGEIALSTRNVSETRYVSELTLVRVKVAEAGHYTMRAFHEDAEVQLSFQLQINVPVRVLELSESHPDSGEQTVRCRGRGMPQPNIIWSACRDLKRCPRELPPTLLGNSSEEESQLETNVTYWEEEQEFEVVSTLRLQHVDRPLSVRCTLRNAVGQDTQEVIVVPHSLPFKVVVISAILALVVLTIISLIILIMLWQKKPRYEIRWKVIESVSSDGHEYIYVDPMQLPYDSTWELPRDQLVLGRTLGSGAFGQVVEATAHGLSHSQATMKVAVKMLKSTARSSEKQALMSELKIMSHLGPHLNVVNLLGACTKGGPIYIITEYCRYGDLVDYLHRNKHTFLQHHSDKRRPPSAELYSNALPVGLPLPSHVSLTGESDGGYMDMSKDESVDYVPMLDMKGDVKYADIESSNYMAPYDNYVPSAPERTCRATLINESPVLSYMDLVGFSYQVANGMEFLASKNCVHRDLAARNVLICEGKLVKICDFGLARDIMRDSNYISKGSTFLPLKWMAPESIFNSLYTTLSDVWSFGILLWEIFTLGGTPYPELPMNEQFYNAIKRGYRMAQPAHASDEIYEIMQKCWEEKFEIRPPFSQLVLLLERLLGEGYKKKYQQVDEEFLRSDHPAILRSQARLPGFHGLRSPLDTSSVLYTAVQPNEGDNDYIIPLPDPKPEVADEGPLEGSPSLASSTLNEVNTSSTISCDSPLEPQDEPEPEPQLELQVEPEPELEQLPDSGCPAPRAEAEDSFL
# LTK = biological target: T4, LTK (Homo sapiens, UniProt P29376)
# T4 construct: purchased Eurofins DiscoverX KINOMEscan (scanTK)
# T4 sequence (P29376 17-864): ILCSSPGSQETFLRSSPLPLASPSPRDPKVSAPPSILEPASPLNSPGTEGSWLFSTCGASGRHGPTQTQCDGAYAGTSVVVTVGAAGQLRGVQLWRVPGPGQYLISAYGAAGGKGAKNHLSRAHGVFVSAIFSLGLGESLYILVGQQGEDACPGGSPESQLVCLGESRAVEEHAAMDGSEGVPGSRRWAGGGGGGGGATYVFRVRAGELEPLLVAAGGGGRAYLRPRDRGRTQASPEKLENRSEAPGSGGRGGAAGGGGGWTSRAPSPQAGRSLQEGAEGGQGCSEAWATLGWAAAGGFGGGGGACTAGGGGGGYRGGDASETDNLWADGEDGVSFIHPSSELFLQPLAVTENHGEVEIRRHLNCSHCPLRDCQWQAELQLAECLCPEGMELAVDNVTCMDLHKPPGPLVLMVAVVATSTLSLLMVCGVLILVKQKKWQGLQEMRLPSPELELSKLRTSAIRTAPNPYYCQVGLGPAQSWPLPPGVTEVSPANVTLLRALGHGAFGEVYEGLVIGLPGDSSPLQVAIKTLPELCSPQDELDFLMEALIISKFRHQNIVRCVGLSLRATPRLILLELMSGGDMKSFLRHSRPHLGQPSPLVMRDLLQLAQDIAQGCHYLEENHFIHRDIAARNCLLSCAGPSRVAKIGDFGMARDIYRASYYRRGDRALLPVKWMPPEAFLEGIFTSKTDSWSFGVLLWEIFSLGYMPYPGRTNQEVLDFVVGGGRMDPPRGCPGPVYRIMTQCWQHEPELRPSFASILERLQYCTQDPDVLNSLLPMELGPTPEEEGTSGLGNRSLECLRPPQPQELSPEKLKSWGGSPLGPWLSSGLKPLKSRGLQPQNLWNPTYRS
# EGFR(G719C) = biological target: T5, EGFR(G719C) (Homo sapiens, UniProt P00533, G719C)
# T5 construct: purchased Eurofins DiscoverX KINOMEscan (scanTK)
# ERBB2 = biological target: T6, ERBB2 (Homo sapiens, UniProt P04626)
# T6 construct: purchased Eurofins DiscoverX KINOMEscan (scanTK)
# EPHA2 = biological target: T7, EPHA2 (Homo sapiens, UniProt P29317)
# T7 construct: purchased Eurofins DiscoverX KINOMEscan (scanTK)
# [2] = biological target: T8, ABL1(Q252H)-nonphosphorylated (Homo sapiens, UniProt P00519, Q252H)
# T8 construct: purchased Eurofins DiscoverX KINOMEscan (scanTK)
# FRK = biological target: T9, FRK (Homo sapiens, UniProt P42685)
# T9 construct: purchased Eurofins DiscoverX KINOMEscan (scanTK)
# T9 sequence (P42685 whole entry): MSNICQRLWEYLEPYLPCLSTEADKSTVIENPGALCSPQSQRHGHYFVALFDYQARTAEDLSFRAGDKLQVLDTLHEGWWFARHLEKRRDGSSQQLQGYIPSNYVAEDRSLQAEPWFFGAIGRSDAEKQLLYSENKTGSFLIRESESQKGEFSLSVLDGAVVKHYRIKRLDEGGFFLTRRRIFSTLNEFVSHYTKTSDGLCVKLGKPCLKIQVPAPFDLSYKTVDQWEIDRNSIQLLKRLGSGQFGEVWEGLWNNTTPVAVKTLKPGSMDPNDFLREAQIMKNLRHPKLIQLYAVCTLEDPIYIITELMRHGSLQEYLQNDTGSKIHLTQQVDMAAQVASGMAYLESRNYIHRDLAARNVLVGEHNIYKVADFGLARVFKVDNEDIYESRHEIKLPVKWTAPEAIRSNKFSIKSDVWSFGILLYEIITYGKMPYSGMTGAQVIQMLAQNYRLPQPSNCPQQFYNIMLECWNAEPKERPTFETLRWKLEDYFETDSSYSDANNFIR
# EGFR(L747-T751del,Sins) = tested on: EGFR(L747-T751del,Sins)
# INSRR = biological target: T10, INSRR (Homo sapiens, UniProt P14616)
# T10 construct: purchased Eurofins DiscoverX KINOMEscan (scanTK)
# EGFR(S752-I759del) = biological target: T11, EGFR(S752-I759del) (Homo sapiens, UniProt P00533, DEL752-759)
# T11 construct: purchased Eurofins DiscoverX KINOMEscan (scanTK)
# T11 sequence (P00533 with tags, fused parts or gaps DEL752-759 limits assumed): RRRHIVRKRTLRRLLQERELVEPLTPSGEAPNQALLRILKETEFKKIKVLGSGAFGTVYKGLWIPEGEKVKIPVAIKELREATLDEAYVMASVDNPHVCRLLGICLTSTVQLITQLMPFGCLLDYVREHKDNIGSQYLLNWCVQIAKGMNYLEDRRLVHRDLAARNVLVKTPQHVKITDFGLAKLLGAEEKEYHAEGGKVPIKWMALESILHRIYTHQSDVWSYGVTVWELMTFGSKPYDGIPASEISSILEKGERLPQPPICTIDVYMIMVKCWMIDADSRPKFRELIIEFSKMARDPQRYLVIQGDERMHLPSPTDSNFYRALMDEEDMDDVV
# FES = biological target: T12, FES (Homo sapiens, UniProt P07332)
# T12 construct: purchased Eurofins DiscoverX KINOMEscan (scanTK)
# T12 sequence (P07332 whole entry): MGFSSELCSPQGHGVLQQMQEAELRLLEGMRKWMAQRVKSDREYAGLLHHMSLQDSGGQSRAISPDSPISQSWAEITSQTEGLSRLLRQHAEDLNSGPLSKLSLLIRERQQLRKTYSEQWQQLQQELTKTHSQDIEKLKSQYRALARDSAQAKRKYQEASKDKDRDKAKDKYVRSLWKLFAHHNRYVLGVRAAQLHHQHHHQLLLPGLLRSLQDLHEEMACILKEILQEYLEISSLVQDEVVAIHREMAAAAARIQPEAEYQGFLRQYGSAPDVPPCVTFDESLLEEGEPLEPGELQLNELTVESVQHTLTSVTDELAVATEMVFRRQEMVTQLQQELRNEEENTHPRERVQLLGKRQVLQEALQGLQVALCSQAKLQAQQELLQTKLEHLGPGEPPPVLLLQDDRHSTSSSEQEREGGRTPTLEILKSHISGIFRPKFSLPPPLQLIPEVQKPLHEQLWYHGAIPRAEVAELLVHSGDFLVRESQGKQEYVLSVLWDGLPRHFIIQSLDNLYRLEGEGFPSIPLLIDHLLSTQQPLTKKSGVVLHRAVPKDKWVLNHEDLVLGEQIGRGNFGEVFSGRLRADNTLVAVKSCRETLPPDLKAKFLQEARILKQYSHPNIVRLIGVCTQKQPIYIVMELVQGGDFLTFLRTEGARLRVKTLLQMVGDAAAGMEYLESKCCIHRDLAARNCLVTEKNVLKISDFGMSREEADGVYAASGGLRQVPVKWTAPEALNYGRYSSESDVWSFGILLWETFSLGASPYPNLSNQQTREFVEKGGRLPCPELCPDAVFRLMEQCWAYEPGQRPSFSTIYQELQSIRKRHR
# EGFR(G719S) = biological target: T13, EGFR(G719S) (Homo sapiens, UniProt P00533, G719S)
# T13 construct: purchased Eurofins DiscoverX KINOMEscan (scanTK)
# T13 sequence (P00533 25-1210 G719S): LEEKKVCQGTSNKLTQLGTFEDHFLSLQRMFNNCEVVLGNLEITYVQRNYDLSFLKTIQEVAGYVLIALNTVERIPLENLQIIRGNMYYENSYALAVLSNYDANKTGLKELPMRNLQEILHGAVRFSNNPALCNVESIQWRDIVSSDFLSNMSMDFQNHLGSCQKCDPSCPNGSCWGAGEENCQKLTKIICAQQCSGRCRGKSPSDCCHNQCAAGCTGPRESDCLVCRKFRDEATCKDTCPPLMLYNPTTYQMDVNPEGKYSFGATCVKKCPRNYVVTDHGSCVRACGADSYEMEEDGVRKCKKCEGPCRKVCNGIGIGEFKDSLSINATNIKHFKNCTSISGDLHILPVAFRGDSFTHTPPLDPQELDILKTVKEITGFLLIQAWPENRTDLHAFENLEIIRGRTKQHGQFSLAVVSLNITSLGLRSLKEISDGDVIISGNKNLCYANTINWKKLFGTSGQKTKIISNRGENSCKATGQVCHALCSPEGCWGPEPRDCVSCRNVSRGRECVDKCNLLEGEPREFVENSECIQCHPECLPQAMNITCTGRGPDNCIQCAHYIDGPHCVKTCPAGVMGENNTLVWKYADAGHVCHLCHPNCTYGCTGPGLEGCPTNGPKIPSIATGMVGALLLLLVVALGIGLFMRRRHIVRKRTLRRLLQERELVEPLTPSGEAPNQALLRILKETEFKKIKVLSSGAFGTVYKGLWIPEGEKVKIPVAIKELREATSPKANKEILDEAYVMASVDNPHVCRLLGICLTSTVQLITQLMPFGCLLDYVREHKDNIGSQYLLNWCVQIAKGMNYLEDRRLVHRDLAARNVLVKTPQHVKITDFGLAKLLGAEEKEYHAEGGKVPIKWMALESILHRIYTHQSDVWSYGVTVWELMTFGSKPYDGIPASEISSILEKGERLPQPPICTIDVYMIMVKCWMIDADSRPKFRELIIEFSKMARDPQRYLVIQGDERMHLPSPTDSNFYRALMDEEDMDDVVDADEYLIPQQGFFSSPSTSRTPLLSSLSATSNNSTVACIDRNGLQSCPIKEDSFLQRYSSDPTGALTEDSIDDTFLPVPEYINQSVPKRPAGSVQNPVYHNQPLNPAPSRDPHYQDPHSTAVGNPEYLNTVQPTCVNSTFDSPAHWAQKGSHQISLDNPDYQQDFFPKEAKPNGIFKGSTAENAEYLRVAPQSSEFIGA
# [3] = biological target: T14, TYK2(JH2domain-pseudokinase) (Homo sapiens, UniProt P29597)
# T14 construct: TYK2(JH2domain-pseudokinase); purchased Eurofins DiscoverX KINOMEscan (scanTK)
# T14 sequence (P29597 575-869 limits assumed): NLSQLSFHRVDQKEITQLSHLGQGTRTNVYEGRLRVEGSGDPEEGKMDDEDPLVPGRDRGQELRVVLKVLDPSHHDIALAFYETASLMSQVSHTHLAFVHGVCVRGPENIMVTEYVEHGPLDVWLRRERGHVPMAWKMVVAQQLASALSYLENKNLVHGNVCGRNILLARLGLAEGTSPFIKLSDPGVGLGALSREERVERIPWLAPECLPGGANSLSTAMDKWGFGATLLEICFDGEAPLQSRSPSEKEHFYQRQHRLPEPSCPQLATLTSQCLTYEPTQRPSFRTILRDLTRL
# [4] = @1000nM, ERBB2, read-out: %Control
# [5] = ERBB2, read-out: %Control @1000nM
smiles,measurement,setting,value
"CNC(=O)c1cnc(S(C)(=O)=O)nc1N1CCCC(n2nc(-c3ccc(Oc4ccccc4)cc3)c3c(N)ncnc32)C1 (stereo not drawn) [Compound 8d, 4-(3-(4-Amino-3-(4-phenoxyphenyl)-1H-pyrazolo[3,4-d]pyrimidin-1-yl)piperidin-1-yl)-N-methyl-2-(methylsulfonyl)pyrimidine-5-carboxamide]",difference in %Control versus compound Ib at 1 µM,EPHA1; @1000nM,-6%
same,remaining binding at 1 µM,"EPHA1; @1000nM, read-out: %Control",66%
same,remaining binding at 1 µM,EPHA1; read-out: %Control @1000nM,66%
same,difference in %Control from reference compound Ib at 1 µM,[1]; @1000nM,17%
same,remaining binding at 1 µM,"[1]; @1000nM, read-out: %Control",90%
same,remaining binding at 1 µM,[1]; read-out: %Control @1000nM,90%
same,remaining binding at 1 µM,"PDGFRB; @1000nM, read-out: %Control",77%
same,remaining binding at 1 µM,PDGFRB; read-out: %Control @1000nM,77%
same,remaining binding at 1 µM,"LTK; @1000nM, read-out: %Control",100%
same,remaining binding at 1 µM,LTK; read-out: %Control @1000nM,100%
same,difference in %Control vs compound Ib at 1 µM,EGFR(G719C); @1000nM,-0.45%
same,remaining binding at 1 µM,"EGFR(G719C); @1000nM, read-out: %Control",0.65%
same,remaining binding at 1 µM,EGFR(G719C); read-out: %Control @1000nM,0.65%
same,difference in %Control versus compound Ib at 1 µM,"ERBB2; @1000nM, ERBB2",5.5%
same,remaining binding at 1 µM,ERBB2; [4],5.5%
same,remaining binding at 1 µM,ERBB2; [5],5.5%
same,difference in %Control versus compound Ib at 1 µM,EPHA2; @1000nM,-2%
same,remaining binding at 1 µM,"EPHA2; @1000nM, read-out: %Control",98%
same,remaining binding at 1 µM,EPHA2; read-out: %Control @1000nM,98%
same,difference in %Control versus reference compound Ib at 1 µM,[2]; @1000nM,13%
same,remaining binding at 1 µM,"[2]; @1000nM, read-out: %Control",26%
same,remaining binding at 1 µM,[2]; read-out: %Control @1000nM,26%
same,difference in %Control versus compound Ib at 1 µM,FRK; @1000nM,33.7%
same,remaining binding at 1 µM,"FRK; @1000nM, read-out: %Control",43%
same,remaining binding at 1 µM,FRK; read-out: %Control @1000nM,43%
same,%Control @1000nM,"EGFR(L747-T751del,Sins)",30%
same,% difference (compound - Ib %Control),"EGFR(L747-T751del,Sins); @1000nM",27.4%
same,%Control,"EGFR(L747-T751del,Sins); @1000nM",30%
same,difference in %Control versus compound Ib at 1 µM,INSRR; @1000nM,-8%
same,remaining binding at 1 µM,"INSRR; @1000nM, read-out: %Control",88%
same,remaining binding at 1 µM,INSRR; read-out: %Control @1000nM,88%
same,difference in %Control versus compound Ib at 1 µM,EGFR(S752-I759del); @1000nM,67%
same,remaining binding at 1 µM,"EGFR(S752-I759del); @1000nM, read-out: %Control",69%
same,remaining binding at 1 µM,EGFR(S752-I759del); read-out: %Control @1000nM,69%
same,difference in %Control versus compound Ib at 1 µM,FES; @1000nM,0%
same,remaining binding at 1 µM,"FES; @1000nM, read-out: %Control",100%
same,remaining binding at 1 µM,FES; read-out: %Control @1000nM,100%
same,difference in %Control from compound Ib at 1 µM,EGFR(G719S); @1000nM,77.4%
same,remaining binding at 1 µM,"EGFR(G719S); @1000nM, read-out: %Control",78%
same,remaining binding at 1 µM,EGFR(G719S); read-out: %Control @1000nM,78%
same,difference in %Control versus Ib at 1 µM,"[3]; @1000nM, read-out: % difference (compound - Ib %Control)",8%
same,remaining binding at 1 µM,"[3]; @1000nM, read-out: %Control",96%
same,remaining binding at 1 µM,[3]; read-out: %Control @1000nM,96%
"C=CC(=O)N1CCC[C@@H](n2nc(-c3ccc(Oc4ccccc4)cc3)c3c(N)ncnc32)C1 [Compound 1g, Ibrutinib, reference compound]",remaining binding at 1 µM,"EPHA1; @1000nM, read-out: %Control",72%
same,remaining binding at 1 µM,EPHA1; read-out: %Control @1000nM,72%
same,remaining binding at 1 µM,"[1]; @1000nM, read-out: %Control",73%
same,remaining binding at 1 µM,[1]; read-out: %Control @1000nM,73%
same,remaining binding at 1 µM,"PDGFRB; @1000nM, read-out: %Control",25%
same,remaining binding at 1 µM,PDGFRB; read-out: %Control @1000nM,25%
same,remaining binding at 1 µM,"LTK; @1000nM, read-out: %Control",81%
same,remaining binding at 1 µM,LTK; read-out: %Control @1000nM,81%
same,remaining binding at 1 µM,ERBB2; [4],0%
same,remaining binding at 1 µM,ERBB2; [5],0%
same,inhibition at 1 µM,"ERBB2; ScanTK, 1 μM",> 99%
same,remaining binding at 1 µM,"EPHA2; @1000nM, read-out: %Control",100%
same,remaining binding at 1 µM,EPHA2; read-out: %Control @1000nM,100%
same,remaining binding at 1 µM,"[2]; @1000nM, read-out: %Control",13%
same,remaining binding at 1 µM,[2]; read-out: %Control @1000nM,13%
same,remaining binding at 1 µM,"FRK; @1000nM, read-out: %Control",9.3%
same,remaining binding at 1 µM,FRK; read-out: %Control @1000nM,9.3%
same,%Control @1000nM,"EGFR(L747-T751del,Sins)",2.6%
same,%Control,"EGFR(L747-T751del,Sins); @1000nM",2.6%
same,remaining binding at 1 µM,"FES; @1000nM, read-out: %Control",100%
same,remaining binding at 1 µM,FES; read-out: %Control @1000nM,100%
same,remaining binding at 1 µM,"[3]; @1000nM, read-out: %Control",88%
same,remaining binding at 1 µM,[3]; read-out: %Control @1000nM,88%
